molecular target: T1, Human aromatase enzyme (Homo sapiens, UniProt P11511); test: In vitro aromatase inhibition assay (3H2O release from 1,2[3H]-androstene-3,17-dione); type: biochemical
T1 construct: The enzyme preparation was used without further purification; from tissue; host or cells: human placenta, microsomal fraction (100000 x g precipitate)
T1 sequence (P11511 1-503): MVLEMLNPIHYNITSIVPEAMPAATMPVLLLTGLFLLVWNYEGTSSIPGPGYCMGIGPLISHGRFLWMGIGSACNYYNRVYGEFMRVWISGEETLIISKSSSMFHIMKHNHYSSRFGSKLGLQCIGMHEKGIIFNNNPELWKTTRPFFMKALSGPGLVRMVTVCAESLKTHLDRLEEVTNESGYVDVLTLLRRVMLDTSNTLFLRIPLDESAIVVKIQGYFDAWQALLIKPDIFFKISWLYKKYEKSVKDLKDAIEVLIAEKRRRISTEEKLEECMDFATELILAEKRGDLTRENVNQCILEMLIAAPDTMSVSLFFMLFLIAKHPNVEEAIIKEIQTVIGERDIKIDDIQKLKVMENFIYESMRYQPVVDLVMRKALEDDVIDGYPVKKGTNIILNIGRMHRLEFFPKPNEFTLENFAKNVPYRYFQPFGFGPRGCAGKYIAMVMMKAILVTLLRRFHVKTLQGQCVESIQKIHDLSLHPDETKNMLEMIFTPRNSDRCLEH

Structure (SMILES)	IC50 [µM]
COc1ccc(CCCCC(c2ccc(F)cc2)c2c[nH]cn2)cc1 (centres unmarked) [Compound 12b, 4-[1-(4-fluorophenyl)-5-(4-methoxyphenyl)pentyl]-1H-imidazole]	3
Cc1cc(C)cc(CCCCC(c2ccc(F)cc2)c2c[nH]cn2)c1 (centres unmarked) [Compound 5b, 4-[5-(3,5-dimethylphenyl)-1-(4-fluorophenyl)-pentyl]-1H-imidazole]	7.5
c1ccc(CCC(c2ccccc2)c2cncn2Cc2ccccc2)cc1 (centres unmarked) [Compound 8b, 1-benzyl-5-(1,3-diphenylpropyl)-1H-imidazole]	30
Cc1cccc(C)c1CCCCC(c1ccc(F)cc1)c1c[nH]cn1 (centres unmarked) [Compound 13b, 4-[1-(4-fluorophenyl)-5-(2,6-dimethylphenyl)-pentyl]-1H-imidazole]	7.7
COc1cccc(CCCCC(c2ccc(F)cc2)c2c[nH]cn2)c1 (centres unmarked) [Compound 11b, 4-[1-(4-fluorophenyl)-5-(3-methoxyphenyl)pentyl]-1H-imidazole]	2.6
